Results reported in patent US9446128B2 (priority 2008, dated 2016).
“And” between values parts separate entries of the source, which are not always exact repeats. Identical values can stand only once.

System: salmonella typimurium TA100
Experiment: Microorganism reverse mutation test, strain TA100
Details: TA100, positive control, 1 μg/plate
Method: The principle of this test is to make use of histidine-requiring strains that are not alive without histidine. This test is performed for detecting histidine recovery, which is original strain property, caused by mutagen in a mutant test.
To carry out the microorganism reverse mutation test, the test was conducted on test standard strains, salmonella typimurium TA98, TA100, TA1535 and TA1537 as pre-culture. […] The salmonella typimurium TA100 is a test strain upon the reversion of guanine and cytosine in a gene, and the salmonella typimurium TA102 is a test strain upon the reversion of adenine and thymine.
As a negative control group, distilled water was used.
The respective test materials, positive control group chemicals, distilled water were treated on a plate, and thereafter the number of revertant strains was measured.

`[N-]=[N+]=[N-]` [sodium azide] was tested, and the “Average number of revertant strains” value was 1,279 and 1,559 and the “Number of revertant strains” value was 1,136 and 1,421 and 1,662 and 1,456.
